Measurements as given in patent publication US20250163038A1, “CBL-B MODULATORS AND USES THEREOF” (Nimbus Clio, Inc., priority 2021, published 2025).
Like-named read-outs stand apart in the source and are kept apart here.

Key:
[1] = molecular target: Recombinant human Cbl-b (aa 36-427) (Homo sapiens, UniProt Q13191); assay: Cbl-b Biochemical Assay (TR-FRET)
[2] = tested on: Jurkat (clone E6-1) cells with NFAT luciferase reporter; assay: Jurkat reporter assay (NFAT Luciferase); format: cell-based; details: Homo sapiens; Jurkat NFAT luciferase reporter cells, anti-CD3 stimulation, 6 hr; read-out: Jurkat NFAT EC50
[3] = molecular target: T1, Recombinant human c-Cbl (aa 47-435) (Homo sapiens, UniProt P22681); assay: c-Cbl Biochemical Assay (TR-FRET)
T1 sequence (P22681 47-435): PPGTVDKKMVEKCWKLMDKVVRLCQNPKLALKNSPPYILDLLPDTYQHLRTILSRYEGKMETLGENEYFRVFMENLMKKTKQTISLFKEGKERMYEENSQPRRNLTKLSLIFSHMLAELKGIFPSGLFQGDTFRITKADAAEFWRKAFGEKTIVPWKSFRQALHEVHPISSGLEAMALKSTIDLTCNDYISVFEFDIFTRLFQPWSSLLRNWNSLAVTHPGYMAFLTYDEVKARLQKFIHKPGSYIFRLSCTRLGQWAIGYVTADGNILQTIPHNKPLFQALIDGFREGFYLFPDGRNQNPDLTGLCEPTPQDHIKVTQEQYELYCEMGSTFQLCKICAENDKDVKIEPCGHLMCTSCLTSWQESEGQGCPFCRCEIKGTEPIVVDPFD

[4] = hc-Cbl Biochemical Assay (TR-FRET), read-out: TR-FRET hcCbl IC50

Chain of Recombinant human Cbl-b (aa 36-427) (Q13191 36-427): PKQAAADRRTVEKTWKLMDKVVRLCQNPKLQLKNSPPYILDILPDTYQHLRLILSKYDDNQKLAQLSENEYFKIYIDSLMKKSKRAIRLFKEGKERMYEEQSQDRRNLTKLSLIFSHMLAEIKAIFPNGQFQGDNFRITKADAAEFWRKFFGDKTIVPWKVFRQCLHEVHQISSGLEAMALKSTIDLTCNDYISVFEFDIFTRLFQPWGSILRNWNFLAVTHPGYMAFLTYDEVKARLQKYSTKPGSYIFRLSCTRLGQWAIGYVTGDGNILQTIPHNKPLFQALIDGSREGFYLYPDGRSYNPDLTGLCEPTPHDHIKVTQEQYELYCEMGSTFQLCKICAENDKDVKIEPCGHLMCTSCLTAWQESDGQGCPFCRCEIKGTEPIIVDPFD

SMILES	IC50 ([1]; read-out: TR-FRET hCbl-b IC50)	EC50 [2]	IC50 [3, 4]	IC50 [1]	IC50 [3]
CO[C@@H](C)CNCc1cc(F)c2oc(-c3cc(-c4ccc(F)cc4-c4nncn4C)cc(C4CC4)n3)nc2c1 [AFO-2, [(2-{6-Cyclopropyl-4-[4-fluoro-2-(4-methyl-1,2,4-triazol-3-yl)phenyl]pyridin-2-yl}-7-fluoro-1,3-benzoxazol-5-yl)methyl][(2S)-2-methoxypropyl]amine]	< 200 nM	200 to 1000 nM	< 200 nM		
Cn1cnnc1-c1cc(F)ccc1-c1cccc(-c2nc3cc(CNCC4CCC4)c(F)c(F)c3o2)c1 [IX-1, 1-Cyclobutyl-N-((6,7-difluoro-2-(4′-fluoro-2′-(4-methyl-4H-1,2,4-triazol-3-yl)-[1,1′-biphenyl]-3-yl)benzo[d]oxazol-5-yl)methyl)methanamine]	< 200 nM	< 200 nM	< 200 nM		
Cc1cc(CNCC2(O)CCC2)cc2nc(-c3cccc(-c4ccc(F)cc4-c4nncn4C)c3)oc12 [IJ-1, 1-((((2-(4′-Fluoro-2′-(4-methyl-4H-1,2,4-triazol-3-yl)-[1,1′-biphenyl]-3-yl)-7-methylbenzo[d]oxazol-5-yl)methyl)amino)methyl)cyclobutan-1-ol]	< 200 nM	< 200 nM	< 200 nM		
Cn1cnnc1-c1cc(F)ccc1-c1cc(-c2nc3cc(CNCC(C)(C)O)cc(C(F)(F)F)c3o2)cc(C2CC2)c1 [JL-1, 1-(((2-(5-Cyclopropyl-4′-fluoro-2′-(4-methyl-4H-1,2,4-triazol-3-yl)-[1,1′-biphenyl]-3-yl)-7-(trifluoromethyl)benzo[d]oxazol-5-yl)methyl)amino)-2-methylpropan-2-ol]	< 200 nM	< 200 nM	< 200 nM		
[2H]C([2H])(N[C@@H]1CCC[C@@H]1O)c1cc(C(F)(F)F)c2oc(-c3cccc(-c4ccc(F)cc4-c4nncn4C)c3)nc2c1 [HA-3, (1S,2R)-2-(((2-(4′-Fluoro-2′-(4-methyl-4H-1,2,4-triazol-3-yl)-[1,1′-biphenyl]-3-yl)-7-(trifluoromethyl)benzo[d]oxazol-5-yl)methyl-d2)amino)cyclopentan-1-ol]	< 200 nM	< 200 nM	< 200 nM		
C[C@H]1CCCN(Cc2cc(C(F)(F)F)c3oc(-c4cccc(-c5ccc(C#N)cc5-c5nncn5C)c4)nc3c2)C1 [AQ-6, (S)-2-(4-Methyl-4H-1,2,4-triazol-3-yl)-3′-(5-((3-methylpiperidin-1-yl)methyl)-7-(trifluoromethyl)benzo[d]oxazol-2-yl)-[1,1′-biphenyl]-4-carbonitrile]	< 200 nM	200 to 1000 nM	1000 to 10000 nM		
Cn1cnnc1-c1cc(F)ccc1-c1cc(-c2nc3cc(CO)c(F)c(F)c3o2)nc(C2CC2)c1 [AFX-1, (2-{6-cyclopropyl-4-[4-fluoro-2-(4-methyl-1,2,4-triazol-3-yl)phenyl]pyridin-2-yl}-6,7-difluoro-1,3-benzoxazol-5-yl)methanol]	200 to 1000 nM	200 to 1000 nM	200 to 1000 nM		
Cn1cnnc1-c1cc(F)ccc1-c1cccc(-c2nc3cc(CN4CCCC[C@@H]4CO)cc(C(F)(F)F)c3o2)c1 [IV-2, (R)-(1-((2-(4′-Fluoro-2′-(4-methyl-4H-1,2,4-triazol-3-yl)-[1,1′-biphenyl]-3-yl)-7-(trifluoromethyl)benzo[d]oxazol-5-yl)methyl)piperidin-2-yl)methanol]	< 200 nM	200 to 1000 nM	200 to 1000 nM		
CCOc1cc(-c2ccc(F)cc2-c2nncn2C)cc(-c2nc3cc(CN[C@@H]4CCC[C@@H]4O)cc(OC)c3o2)n1 [ADM-14, (1S,2R)-2-{[(2-{6-Ethoxy-4-[4-fluoro-2-(4-methyl-1,2,4-triazol-3-yl)phenyl]pyridin-2-yl}-7-methoxy-1,3-benzoxazol-5-yl)methyl]amino}cyclopentan-1-ol]	< 200 nM	< 200 nM	< 200 nM		
COc1cc(CNCC2(O)CCC2)cc2nc(-c3cccc(-c4ccc(F)cc4-c4nncn4C)c3)oc12 [GA-1, 1-((((2-(4′-Fluoro-2′-(4-methyl-4H-1,2,4-triazol-3-yl)-[1,1′-biphenyl]-3-yl)-7-methoxybenzo[d]oxazol-5-yl)methyl)amino)methyl)cyclobutan-1-ol]	< 200 nM	< 200 nM	< 200 nM		
Cn1cnnc1-c1cc(F)ccc1-c1cc(-c2nc3cc(CN[C@@H]4CCC[C@]4(C)O)cc(F)c3o2)nc(C2CC2)c1 [AFL-2, (1S,2R)-2-(((2-(6-Cyclopropyl-4-(4-fluoro-2-(4-methyl-4H-1,2,4-triazol-3-yl)phenyl)pyridin-2-yl)-7-fluorobenzo[d]oxazol-5-yl)methyl)amino)-1-methylcyclopentan-1-ol]		1000 to 10000 nM		< 200 nM	200 to 1000 nM
C[C@H](NCc1cc(C(F)(F)F)c2oc(-c3cccc(-c4ccc(F)cc4-c4nncn4C)c3)nc2c1)C1CCC1 [GW-2, (S)-1-Cyclobutyl-N-((2-(4′-fluoro-2′-(4-methyl-4H-1,2,4-triazol-3-yl)-[1,1′-biphenyl]-3-yl)-7-(trifluoromethyl)benzo[d]oxazol-5-yl)methyl)ethan-1-amine]	< 200 nM	< 200 nM	< 200 nM		
C[C@H](Cc1nncn1C)c1cccc(-c2nc3ccc(Br)c(C(F)(F)F)c3[nH]2)c1 [AV-9, (R)-6-Bromo-2-(3-(1-(4-methyl-4H-1,2,4-triazol-3-yl)propan-2-yl)phenyl)-7-(trifluoromethyl)-1H-benzo[d]imidazole]	200 to 1000 nM	1000 to 10000 nM	10000 to 50000 nM		
CN(Cc1cc(C(F)(F)F)c2[nH]c(-c3cccc(-c4ccc(F)cc4-c4nncn4C)c3)nc2c1)[C@@H]1CCC[C@@H]1O [ID-3, (1S,2R)-2-(((2-(4′-Fluoro-2′-(4-methyl-4H-1,2,4-triazol-3-yl)-[1,1′-biphenyl]-3-yl)-7-(trifluoromethyl)-1H-benzo[d]imidazol-5-yl)methyl)(methyl)amino)cyclopentan-1-ol]	< 200 nM	< 200 nM	< 200 nM		
Cn1cnnc1-c1cc(F)ccc1-c1cccc(-c2nc3cc(CNC[C@@H]4CCC(=O)N4)cc(C(F)(F)F)c3o2)c1 [CU-2, (S)-5-((((2-(4′-Fluoro-2′-(4-methyl-4H-1,2,4-triazol-3-yl)-[1,1′-biphenyl]-3-yl)-7-(trifluoromethyl)benzo[d]oxazol-5-yl)methyl)amino)methyl)pyrrolidin-2-one]	< 200 nM	200 to 1000 nM	< 200 nM		
Cn1cnnc1-c1cc(F)ccc1-c1cc(-c2nc3cc(CNC(C)(C)C4CCC4)c(F)c(F)c3o2)nc(C2CC2)c1 [AGD-1, (2-Cyclobutylpropan-2-yl)[(2-{6-cyclopropyl-4-[4-fluoro-2-(4-methyl-1,2,4-triazol-3-yl)phenyl]pyridin-2-yl}-6,7-difluoro-1,3-benzoxazol-5-yl)methyl]amine]	< 200 nM	1000 to 10000 nM	200 to 1000 nM		
CO[C@H]1CCC[C@H]1N(C)Cc1cc(C(F)(F)F)c2oc(-c3cccc(-c4ccc(F)cc4-c4nncn4C)c3)nc2c1 [CN-5, (1R,2S)—N-((2-(4′-Fluoro-2′-(4-methyl-4H-1,2,4-triazol-3-yl)-[1,1′-biphenyl]-3-yl)-7-(trifluoromethyl)benzo[d]oxazol-5-yl)methyl)-2-methoxy-N-methylcyclopentan-1-amine]	< 200 nM	200 to 1000 nM	200 to 1000 nM		
CN(Cc1cc(C(F)(F)F)c2oc(-c3cccc(-c4ccc(F)cc4-c4nncn4C)c3)nc2c1)CC(C)(C)O [AP-2, 1-(((2-(4′-Fluoro-2′-(4-methyl-4H-1,2,4-triazol-3-yl)-[1,1′-biphenyl]-3-yl)-7-(trifluoromethyl)benzo[d]oxazol-5-yl)methyl)(methyl)amino)-2-methylpropan-2-ol]	< 200 nM	200 to 1000 nM	1000 to 10000 nM		
CC(C)CCNCc1cc(C(F)(F)F)c2oc(-c3cccc(-c4ccc(F)cc4-c4nncn4C)c3)nc2c1 [FO-2, N-((2-(4′-Fluoro-2′-(4-methyl-4H-1,2,4-triazol-3-yl)-[1,1′-biphenyl]-3-yl)-7-(trifluoromethyl)benzo[d]oxazol-5-yl)methyl)-3-methylbutan-1-amine]	< 200 nM	< 200 nM	< 200 nM		
Cn1cnnc1-c1cc(F)ccc1-c1cc(-c2nc3cc(CNCC4CCC4)cc(F)c3o2)nc(C2CC2)c1 [AGT-1, (Cyclobutylmethyl)[(2-{6-cyclopropyl-4-[4-fluoro-2-(4-methyl-1,2,4-triazol-3-yl)phenyl]pyridin-2-yl}-7-fluoro-1,3-benzoxazol-5-yl)methyl]amine]	< 200 nM	< 200 nM	< 200 nM		
Cn1cnnc1-c1cc(F)ccc1-c1cccc(-c2nc3cc(CNCC4(C#N)CCCC4)cc(C(F)(F)F)c3o2)c1 [CX-1, 1-((((2-(4′-Fluoro-2′-(4-methyl-4H-1,2,4-triazol-3-yl)-[1,1′-biphenyl]-3-yl)-7-(trifluoromethyl)benzo[d]oxazol-5-yl)methyl)amino)methyl)cyclopentane-1-carbonitrile]	< 200 nM	200 to 1000 nM	< 200 nM		
[2H]C([2H])(NCC1(O)CCC1)c1cc(C(F)(F)F)c2oc(-c3cccc(-c4ccc(F)cc4-c4nncn4C)c3)nc2c1 [HB-1, 1-((((2-(4′-Fluoro-2′-(4-methyl-4H-1,2,4-triazol-3-yl)-[1,1′-biphenyl]-3-yl)-7-(trifluoromethyl)benzo[d]oxazol-5-yl)methyl-d2)amino)methyl)cyclobutan-1-ol]	< 200 nM	< 200 nM	< 200 nM		
